Experiments:
CYP3A4 = CYP3A4 (Homo sapiens, UniProt P08684); test: in vitro; details: recombinant enzyme
Method: (§1) The inhibition assays for human cytochrome P450 (CYP) enzyme activities were performed in multiwall plates using CYP2C9 and CYP3A4 screening kits (Invitrogen Co., Carlsbad, CA, USA) according to the manufacturer’s instruction. The test compounds Ketoconazole (a positive inhibition control for CYP3A4) or Sulfaphenazole (a positive inhibition control for CYP2C9) were mixed with each master pre-mix comprising CYP2C9 or CYP3A4 BACULOSOMES® reagent and the regeneration system, which contained glucose-6-phosphate and glucose-6-phosphate dehydrogenase. The mixture was incubated at room temperature for 20 min. Following incubation, a CYP enzyme-specific substrate (Vivid BOMCC) and NADP^+ were added and the mixture was incubated at room temperature for 30 min. The reaction was stopped by the addition of a Stop Reagent (CYP450 isozyme specific inhibitors). CYP activity was evaluated by measuring the fluorescence of the fluorescent metabolite generated from each CYP enzyme-specific substrate. The fluorescence was measured using a fluorescent plate reader at 409 nm (excitation) and 460 nm (emission). All experiments were performed in duplicate, and the results are expressed as percent inhibition.

CYP2C9 = CYP2C9 (Homo sapiens, UniProt P11712); test: Cytochrome P450 enzyme activity assay in vitro (CYP2C9 screening kit)
Chain of CYP2C9 (P11712 whole entry): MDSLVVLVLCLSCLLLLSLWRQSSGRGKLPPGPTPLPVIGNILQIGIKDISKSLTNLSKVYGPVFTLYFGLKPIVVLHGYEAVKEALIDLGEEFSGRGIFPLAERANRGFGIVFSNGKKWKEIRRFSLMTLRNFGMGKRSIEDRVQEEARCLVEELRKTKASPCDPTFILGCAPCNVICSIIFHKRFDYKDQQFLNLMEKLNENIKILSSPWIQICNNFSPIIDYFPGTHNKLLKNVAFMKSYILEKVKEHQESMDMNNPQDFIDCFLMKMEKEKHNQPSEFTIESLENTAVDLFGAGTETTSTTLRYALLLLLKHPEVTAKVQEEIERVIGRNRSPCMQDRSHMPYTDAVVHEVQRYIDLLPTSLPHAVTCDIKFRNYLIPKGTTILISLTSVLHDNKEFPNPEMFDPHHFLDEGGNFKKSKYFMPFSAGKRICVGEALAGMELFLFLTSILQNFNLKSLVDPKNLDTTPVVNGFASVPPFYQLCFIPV
Method: as §1

[1] = test system: HCl/ethanol-induced gastric ulcers; test: HCl/ethanol-induced gastritis in rats; assay type: in vivo, Sprague-Dawley (S.D.) rats; details: HCl/ethanol-induced GU; for ED50: Rattus norvegicus, oral, dose-response, rats, read-out: ED50 (50% protection against GU)
Method: The male S.D. rats were fasted for 24 h prior to oral dosing with the normal saline (vehicle), rebamipide (a positive control), or test compounds (Figure 1) at a range of doses, which are described in the results. One hour after the treatments, all animals orally received 0.5 mL of a mixture of 0.15 M HCl and 60% ethanol solution. Animals were sacrificed by cervical dislocation 3 h after the administration of HCl/ethanol solution, the stomach was removed and fixed in 4% formalin solution for 1 h, opened along the greater curvature, and photographed using a camera attached to a dissection microscope. Total area (mm^2) of mucosal erosive lesion was measured using Photoshop CS4 Extended (Adobe, San Jose, CA, USA) software. The percentage of ulcer inhibition by test compounds was calculated by the following formula: % protection of ulceration = ((%Uarea vehicle treated ulcer control–%Uarea compound treated)/%Uarea vehicle treated ulcer control) × 100(1) where %Uarea is the percent ulcer area of the total gastric mucosa area. ED50 values (50% protection against GU) were calculated from the dose-response curves of logarithmic plots of each test compound.

[2] = test system: indomethacin-induced gastric ulcers; test: Indomethacin-induced gastritis in rats; assay type: in vivo, Sprague-Dawley (S.D.) rats; details: for gastroprotective activity (in words): oral 40 mg/kg, indomethacin-induced GU, rats; for GU reversal: stated for both HCl/ethanol- and indomethacin-induced GU
Method: The male S.D. rats were fasted for 24 h prior to oral dosing with normal saline, rebamipide, or test compounds at a dose of 40 mg/kg body weight. One hour after treatment, all animals orally received 0.5 mL indomethacin solution (80 mg/kg body weight, suspended in 5% sodium bicarbonate). Animals were sacrificed by cervical dislocation 6 h after the administration of indomethacin solution, the stomach was removed and fixed in 2% formalin solution for 30 min, opened along the greater curvature, and photographed using a camera attached to a dissection microscope. Total area (mm^2) of mucosal erosive lesion was measured and the % protection was calculated as described above.

adherent gastric mucus = test: Measurement of adherent gastric mucus (alcian blue) in HCl/ethanol-treated rats; assay type: in vivo, Sprague-Dawley (S.D.) rats; details: 20 mg/kg body weight oral, 1 h before HCl/ethanol, mean ± SEM n = 6
Method: The male S.D. rats were fasted for 24 h prior to oral dosing with normal saline, rebamipide, or test compounds at a dose of 20 mg/kg body weight. One hour after the treatments, all animals orally received 0.5 mL of a mixture of 0.15 M HCl and 60% ethanol solution. Animals were sacrificed by cervical dislocation 3 h after the administration of HCl/ethanol solution, the stomach was removed, and parts of the stomach mucosa were rinsed with ice-cold 0.25 M sucrose. Measurement of adherent gastric mucosal mucus was assayed using alcian blue, a dye which stains acid mucosubstances, as previously described. In brief, a 100 mm^2 portion of the glandular region of the stomach was excised with a scalpel, and soaked in 0.1% alcian blue dissolved in 0.16 M of sucrose buffered with 0.05 M sodium acetate (pH 5.8) for 2 h. The unbound dye was removed using two successive washes with 0.25 M sucrose. The dye complex with mucus was extracted using 30% docusate sodium salt for 2 h. After centrifugation at 2600× g for 10 min, the optical density of the alcian blue solution was measured at 620 nm and calculated using the calibration curve. The adherent gastric mucosal mucus was expressed as the amount of the alcian blue (μg/g tissue).

ICR mice = test: Acute oral toxicity in mice; assay type: in vivo; details: for Mortality / Relative Organ Weight, Heart / Relative Organ Weight, Kidney / Relative Organ Weight, Liver / Relative Organ Weight, Lung / Relative Organ Weight, Spleen / alteration in body weight vs vehicle control (in words): single oral 1000 mg/kg, 14 days; for Mortality: deaths/animals; for Relative Organ Weight, Heart / Relative Organ Weight, Kidney / Relative Organ Weight, Liver / Relative Organ Weight, Lung / Relative Organ Weight, Spleen: mean ± SEM n = 10; for LD50: oral, Probit method; for alteration in body weight vs vehicle control (in words): male and female ICR mice; for acute toxicity (in words): single oral administration 1000 mg/kg body weight, ICR mice
Method: Acute toxicity studies were performed both in male and female ICR mice as described previously. Vehicle control and test compound treated groups consisted of 10 animals each. Mice were acclimatized for 7 days before experimentation. Before dosing with test compounds, animals were fasted for 24 h with access to adequate drinking water in cases with wire mesh bottoms, to prevent coprophagy. The treated group received test compounds, and the control group received saline by gavage at a dose of 1000 mg/kg body weight. […] The mortality, body measurements, and behavior were assessed and recorded daily for 14 days after treatment. The macroscopic analyses and weight of vital organs, such as the liver, kidney, spleen, lung, and heart were compared between the animals treated with test compounds and vehicle.

[3] = single oral dose 40 mg/kg body weight, S.D. rats

Chain of CYP3A4 (P08684 whole entry): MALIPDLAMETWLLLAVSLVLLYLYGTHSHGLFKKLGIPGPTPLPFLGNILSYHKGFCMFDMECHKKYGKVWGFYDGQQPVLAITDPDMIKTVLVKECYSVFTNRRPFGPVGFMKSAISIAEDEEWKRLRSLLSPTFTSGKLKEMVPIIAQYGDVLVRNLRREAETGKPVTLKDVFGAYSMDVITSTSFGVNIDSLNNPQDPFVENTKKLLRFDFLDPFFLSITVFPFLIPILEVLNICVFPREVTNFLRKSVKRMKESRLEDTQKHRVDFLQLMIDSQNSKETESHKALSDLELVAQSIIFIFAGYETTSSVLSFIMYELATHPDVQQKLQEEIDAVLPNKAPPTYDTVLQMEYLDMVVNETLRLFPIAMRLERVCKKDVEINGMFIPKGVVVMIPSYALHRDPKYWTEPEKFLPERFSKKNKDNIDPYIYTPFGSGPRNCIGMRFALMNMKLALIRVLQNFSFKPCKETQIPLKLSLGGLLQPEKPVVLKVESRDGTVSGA

Work on COC1Oc2cc3ccc(=O)oc3cc2O1 (stereo not shown) [Compound 7, 6,7-(1-Methoxy)methylenedioxycoumarin] yielded a melting point of 205 to 206 °C.
CC(=O)N1CCN(c2ccc(OCC3COC(Cn4ccnc4)(c4ccc(Cl)cc4Cl)O3)cc2)CC1 (stereo not shown) [Ketoconazole, reference compound] showed an inhibition at 30 min, 20 µM (CYP3A4) of 97.5% and an inhibition at 30 min, 20 µM (CYP2C9; recombinant enzyme) of 0%.
For COc1cc2ccc(=O)oc2c2c1OCO2 [Compound 4, 6-methoxy-7,8-methylenedioxycoumarin], the “protection rate (gastric lesion)” value [1, 3] was 93.1%, the “gastroprotective activity (in words)” value [2] was “equipotent gastroprotective activity that of rebamipide” and the melting point was 220 to 221 °C.
In the case of COc1cc2ccc(=O)oc2cc1OC [Compound 1, 6,7-dimethoxycoumarin], the ED50 [1] is reported as 4.21 mg/kg, the “gastroprotective activity (in words)” value [1, 3] is reported as “significantly protected” and the “gastroprotective activity (in words)” value [2] is reported as “effectively inhibited”. It also gave an inhibition at 30 min, 10 µM (CYP3A4) of 32.7% and an inhibition at 30 min, 10 µM (CYP2C9; recombinant enzyme) of 0%.
Compound O=c1ccc2cc3c(cc2o1)OCO3 [Compound 6, 6,7-Methylenedioxycomarin] has a melting point of 230 to 231 °C.
With COc1cc2oc(=O)ccc2c(OC)c1OC [Compound 2, 5,6,7-Trimethoxycoumarin] the ED50 [1] was 3.94 mg/kg, the “protection rate (gastric lesion)” value [1, 3] was 90.0% and the “gastroprotective activity (in words)” value [2] was “effectively inhibited”. The GU reversal [2] was “over 90%”, the “Adherent Mucus” value (adherent gastric mucus) was 1424 ± 83 μg alcian blue/g tissue and the Mortality (ICR mice; female mice) was 0/10. The “Relative Organ Weight, Heart” value (ICR mice; female mice) was 0.47 ± 0.05 % body weight, the “Relative Organ Weight, Kidney” value (ICR mice; female mice) was 1.22 ± 0.09 % body weight and the “Relative Organ Weight, Liver” value (ICR mice; female mice) was 4.21 ± 0.64 % body weight. The “Relative Organ Weight, Lung” value (ICR mice; female mice) was 0.69 ± 0.07 % body weight, the “Relative Organ Weight, Spleen” value (ICR mice; female mice) was 0.45 ± 0.09 % body weight and the Mortality (ICR mice; male mice) was 0/10. The “Relative Organ Weight, Heart” value (ICR mice; male mice) was 0.46 ± 0.07 % body weight, the “Relative Organ Weight, Kidney” value (ICR mice; male mice) was 1.56 ± 0.05 % body weight and the “Relative Organ Weight, Liver” value (ICR mice; male mice) was 5.84 ± 0.23 % body weight. The “Relative Organ Weight, Lung” value (ICR mice; male mice) was 0.68 ± 0.05 % body weight, the “Relative Organ Weight, Spleen” value (ICR mice; male mice) was 0.36 ± 0.08 % body weight and the LD50 (ICR mice; female ICR mice) was 3857 mg/kg body weight. The LD50 (ICR mice; male ICR mice) was 3812 mg/kg body weight, the “alteration in body weight vs vehicle control (in words)” value (ICR mice) was “no significant alteration” and the “acute toxicity (in words)” value (ICR mice) was “no toxicity”. The inhibition at 30 min, 10 µM (CYP3A4) was 19.1% and the inhibition at 30 min, 10 µM (CYP2C9; recombinant CYP2C9 BACULOSOMES, probe Vivid BOMCC) was 0%.
Nc1ccc(S(=O)(=O)Nc2ccnn2-c2ccccc2)cc1 [Sulfaphenazole, reference compound] gave an inhibition at 30 min, 20 µM (CYP3A4) of 0% and an inhibition at 30 min, 20 µM (CYP2C9; recombinant enzyme) of 93.4%.
For O=C(NC(Cc1cc(=O)[nH]c2ccccc12)C(=O)O)c1ccc(Cl)cc1 (stereo not shown) [Rebamipide, reference compound], the ED50 [1] was 9.53 mg/kg, the “protection rate (gastric lesion)” value [1, 3] was 57.8% and the “Adherent Mucus” value (adherent gastric mucus) was 1584 ± 80 μg alcian blue/g tissue.
In the case of COc1cc2ccc(=O)oc2c(OC)c1OC [Compound 3, 6,7,8-trimethoxycoumarin], the ED50 [1] is reported as 2.93 mg/kg, the “protection rate (gastric lesion)” value [1, 3] is reported as 95.8% and the “gastroprotective activity (in words)” value [2] is reported as “effectively inhibited”. The GU reversal [2] was “over 90%”, the “Adherent Mucus” value (adherent gastric mucus) was 1876 ± 51 μg alcian blue/g tissue and the Mortality (ICR mice; female mice) was 0/10. For the same compound, the “Relative Organ Weight, Heart” value (ICR mice; female mice) was 0.54 ± 0.05 % body weight, the “Relative Organ Weight, Kidney” value (ICR mice; female mice) was 1.34 ± 0.05 % body weight and the “Relative Organ Weight, Liver” value (ICR mice; female mice) was 6.86 ± 0.78 % body weight. The “Relative Organ Weight, Lung” value (ICR mice; female mice) was 0.79 ± 0.06 % body weight, the “Relative Organ Weight, Spleen” value (ICR mice; female mice) was 0.48 ± 0.10 % body weight and the Mortality (ICR mice; male mice) was 0/10. The “Relative Organ Weight, Heart” value (ICR mice; male mice) was 0.50 ± 0.02 % body weight, the “Relative Organ Weight, Kidney” value (ICR mice; male mice) was 1.58 ± 0.06 % body weight and the “Relative Organ Weight, Liver” value (ICR mice; male mice) was 4.92 ± 0.24 % body weight. The “Relative Organ Weight, Lung” value (ICR mice; male mice) was 0.69 ± 0.06 % body weight, the “Relative Organ Weight, Spleen” value (ICR mice; male mice) was 0.40 ± 0.07 % body weight and the LD50 (ICR mice; female ICR mice) was 3500 mg/kg body weight. The LD50 (ICR mice; male ICR mice) was 2111 mg/kg body weight, the “alteration in body weight vs vehicle control (in words)” value (ICR mice) was “no significant alteration” and the “acute toxicity (in words)” value (ICR mice) was “no toxicity”. For the same compound, the inhibition at 30 min, 10 µM (CYP3A4) was 15.8% and the inhibition at 30 min, 10 µM (CYP2C9; recombinant enzyme) was 0%.
In the case of COc1cc2ccc(=O)oc2c2c1OC(OC)O2 (stereo not shown) [Compound 5, 6-Methoxy-7,8-(1-methoxy)methylenedioxycoumarin], the melting point is reported as 202 to 203 °C.

— article PMC4377892, “Gastroprotective Efficacy and Safety Evaluation of Scoparone Derivatives on Experimentally Induced Gastric Lesions in Rodents” (Nutrients, 2015)
